How the values were obtained:
[1] = system: LDL-induced monocyte chemotactic activity in cultures of human aortic endothelial cells; assay: HDL-inflammatory index: HDL from treated apoE null mice tested in human aortic endothelial cell cultures; assay type: in vivo; settings: for HDL-inflammatory index, salicylanilide with D-4F or L-4F: FIG. 24, salicylanilide:peptide 10:1, peptide 5 μg by stomach tube
Procedure: 11-month-old female apoE null mice were fasted during the day. At night the mice were provided chow containing or not containing additions. […] The mice were only given one gram of chow per mouse (n=8 mice per group) so that they would consume all of the chow. In the morning after the chow was consumed the mice were bled and their plasma was sucrose cryopreserved and fractionated by FPLC and the HDL-containing fractions were tested for their ability to inhibit monocyte chemotactic activity induced by a standard control human LDL (A) in cultures of human aortic endothelial cells. The mouse HDL (C-J) was also compared to a standard human HDL (B) that was added at the same concentrations as the mouse HDL. The resulting monocyte chemotactic activity was normalized to the standard control LDL added alone (A). The results are plotted as the HDL-inflammatory index, which is the result of dividing the monocyte chemotactic activity measured for each condition by the monocyte chemotactic activity obtained by the standard control LDL added alone, which was normalized to 1.0 as described previously (Navab et al. (2004) J Lipid Res, 45: 993-1007).
A second experiment was performed as described for the first experiment with 8 mice in each group except that the additions to the chow were different. […] As in the first experiment the mice were only given one gram of chow per mouse so that they would consume all of the chow. In the morning this second group of mice were bled and their HDL tested in the human artery wall cell culture together with the HDL from the first experiment.
L-4F (free base) was diluted with water to give 10 μg per 100 μL of water. […] The mice were fasted and after 7 hours they were bled and their plasma was sucrose cryopreserved. The plasma was fractionated by FPLC and the HDL-containing fractions were tested for their ability to inhibit the induction of monocyte chemotactic activity by a standard control human LDL, which was added to cultures of human aortic endothelial cells. The standard control human LDL was also added by itself or with a standard control human HDL. The values obtained by the standard control human LDL alone were normalized to 1.0. The values obtained after the addition of the standard control HDL or the mouse HDL were compared to the values obtained by the standard control LDL alone to give the HDL Inflammatory Index.
Fasting was continued and the mice were bled 5 hours later and the HDL inflammatory index determined in cultures of human aortic endothelial cells as described in FIG. 8. Briefly, To determine the HDL-inflammatory index lipoproteins were added to human aortic endothelial cell cultures as described previously (Navab et al., (2005) Circulation Research 97: 524-532). A normal control human LDL was added to each well in triplicate at a final concentration of 100 μg/mL of LDL-cholesterol. A normal human HDL was added to three wells containing human LDL at a final concentration of 50 μg/mL HDL-cholesterol as a positive control. HDL from the mice at a final concentration of 50 μg/mL HDL-cholesterol was added in triplicate to other wells containing human LDL. After 8 hours of culture the supernatants were removed and monocyte chemotactic activity was determined as previously described (Navab et al. (2001) J. Lipid Res., 42: 1308-1317; Danciger et al. (2004) J. Immunol. Meth., 288: 123-124). The values obtained from wells containing the human LDL but no HDL were normalized to 1.0. The values obtained from wells containing the human LDL with either human or mouse HDL were divided by the values obtained from wells with human LDL without added HDL to give the HDL-inflammatory index as previously described (Ansell et al. (2003) Circulation 108: 2751-2756).

[2] = system: monocyte chemotactic activity in cultures of human aortic endothelial cells; assay: LDL-inflammatory index: LDL from treated apoE null mice tested in human aortic endothelial cell cultures; assay type: in vivo; settings: for LDL-inflammatory index, salicylanilide with D-4F or L-4F: FIG. 25, mice of FIG. 24
Text: […] to induce monocyte chemotactic activity in cultures of human aortic endothelial cells and compared to a standard control human LDL whose values were normalized to 1.0 for the LDL-inflammatory index.

[3] = solubilization of niclosamide in water by L-4F; assay type: physicochemical; settings: FIG. 13; Niclosamide 10 mg per mL in water or water with 1.0 mg/mL L-4F, homogenized, 4° C. ten days
Procedure: The solutions were stored at 4° C. for ten days and photographed (see FIG. 13).

[4] = cited from earlier work
aortic sinus lesion area = assay: lesion regression in old apoE null mice, six months in chow; assay type: in vivo; settings: FIGS. 32-34; L-4F 200 μg and niclosamide 2 mg/mouse/day in chow, pravastatin 50 μg/mouse/day, 26 weeks
Text: Ninety-five female apoE null mice age 9.5 months from the UCLA breeding colony were identified. Twenty-three were sacrificed at time Zero (Group I) to establish lesion area at the start of the experiment. […] All groups received 50 micrograms/mouse/day of pravastatin in their drinking water. At the veterinarian's request because of fighting and/or ulcerative dermatitis mice were euthanized prior to the end of the experiment as follows: 6 mice from Group II; 5 mice from Group III; 4 mice from Group IV. After six months the remaining mice were sacrificed and aortic sinus lesion area was determined as described previously (Id.).
In still another experiments, nine and half months-old female apoE null mice were divided into four groups: Group I was sacrificed to establish base line lesion area (Time Zero). […] Group III received L-4F at 200 μg/mouse/day in rodent chow. […] Groups II-IV received pravastatin 50 μg/mouse/day in drinking water. After 26 weeks the mice were sacrificed and aortic sinus lesion area was determined.

HDL function = settings: drinking water of apoE null mice for 24 hours; D-4F 1 μg/ml, statin 0.05 mg/ml; related application U.S. Ser. No. 10/423,830; cited from earlier work
[5] = mouse, in vivo, po
[6] = mouse, in vivo; cited from earlier work
[7] = self-association of L-4F in aqueous environment (non-denaturing gel); assay type: physicochemical; settings: FIG. 39 lane 2
Text: Lane 1 contains molecular weight markers (HMW).

[8] = system: LDL-induced monocyte chemotactic activity in cultures of human aortic endothelial cells; settings: administered orally to mice; Navab et al. 2002; cited from earlier work
[9] = system: atherosclerosis in apoE Null mice; assay: atherosclerosis lesions (aortic sinus, en face, macrophage area), 14 weeks in chow; assay type: in vivo; settings: FIGS. 29-31, L-4F 25 and niclosamide 250 μg/mouse/day in chow, all groups pravastatin 50 μg/mouse/day
[10] = target: the molecule itself; assay: non-denaturing gel (4-20%, coomassie blue), L-4F alone in lane 2; self-association of the peptide
[11] = FIG. 22, peptide 10 μg with or without niclosamide 10:1, ABCT pH 8.0, stomach tube, seven hours

O=C(Nc1ccc([N+](=O)[O-])cc1Cl)c1ccc(Cl)cc1O [BP-1001]
HDL-inflammatory index, salicylanilide with D-4F or L-4F ([1]; six hours): more potent than niclosamide
LDL-inflammatory index, salicylanilide with D-4F or L-4F [2]: more potent

O=C(Nc1ccc([N+](=O)[O-])cc1Cl)c1ccc(O)c(Cl)c1 [BP-1012]
HDL-inflammatory index, salicylanilide with D-4F or L-4F ([1]; six hours): more potent than niclosamide
LDL-inflammatory index, salicylanilide with D-4F or L-4F [2]: more potent

O=C(Nc1ccc([N+](=O)[O-])cc1Cl)c1cc(Cl)ccc1O [Niclosamide, 5-chloro-N-(2-chloro-4-nitrophenyl)-2-hydroxybenzamide]
solubility of niclosamide in aqueous solution [3]: relatively insoluble
water solubility ([4]; at 20° C., ethanolamine salt in distilled water): 5 to 8 mg/L
solubility in acetone [4]: soluble
solubility in ether, ethanol and chloroform [4]: sparingly soluble
stability in tablets ([4]; moist environments): undergoes a biodegradation
enhancement of the ability of L-4F to render HDL anti-inflammatory ([1]; FIG. 16, niclosamide 250 μg/day in chow, L-4F 25 μg/day in drinking water or chow, three days): greatly enhanced
enhancement of the ability of L-4F to decrease LDL-induced monocyte chemotactic activity ([2]; FIG. 17, niclosamide 250 μg/day in chow, L-4F 25 μg/day in drinking water or chow, three days): greatly enhanced
lesions in old apoE null mice versus Time Zero (aortic sinus lesion area): neither niclosamide nor L-4F without niclosamide significantly reduced lesions

CC(C)c1c(C(=O)Nc2ccccc2)c(-c2ccccc2)c(-c2ccc(F)cc2)n1CC[C@@H](O)C[C@@H](O)CC(=O)O [atorvastatin, reference compound]
HDL function (HDL function): did not improve HDL function

Ac-DWFKAFYDKVAEKFKEAF-NH2 [D-4F]
detectability in the circulation [5]: essentially non-detectable
HDL-inflammatory index [1, 11]: able to render apoE null mouse HDL anti-inflammatory to a degree comparable to normal human HDL
HDL function (HDL function): did not significantly improve HDL function

Ac-DWFKAFYDKVAEKFKEAF-NH2 [L-4F, Ac-D-W-F-K-A-F-Y-D-K-V-A-E-K-F-K-E-A-F-NH2]
degradation after oral administration [6]: rapidly degraded
detectability in the circulation [5]: essentially non-detectable
HDL-inflammatory index ([1]; FIG. 8, female apoE null mice, additions to 1 g chow overnight: L-4F 2 or 10 μg, Niclosamide 8 or 100 μg): slightly but significantly improved
HDL-inflammatory index [1, 11]: only able to achieve this degree of efficacy when co-administered with niclosamide
HDL-inflammatory index ([1]; FIG. 37, fractions containing 10 μg L-4F or 10 μg niclosamide in ABCT by stomach tube, six hours): not effective
molecular weight of micelles formed by self-association [7]: > 100 kDa
protective capacity of HDL to inhibit LDL-induced monocyte chemotactic activity [8]: did not significantly alter
atherosclerosis (aortic sinus lesion, en face, macrophage lesion area) [9]: not without niclosamide
lesions in old apoE null mice versus Time Zero (aortic sinus lesion area): neither niclosamide nor L-4F without niclosamide significantly reduced lesions

B1: L-4F (Ac-D-W-F-K-A-F-Y-D-K-V-A-E-K-F-K-E-A-F-NH2, all L amino acids) (peptide)
peptide: Ac-DWFKAFYDKVAEKFKEAF-NH2
notes: It self-associates into micelles; also called L-4F (free base)
binding result [10]: binds

From patent US20110183889A1, “SALICYLANILIDE MODIFIED PEPTIDES FOR USE AS ORAL THERAPEUTICS” (The Regents of the University of California, priority 2007, published 2011)
